Test results as given in article PMC6069857, “Effects of novel HDAC inhibitors on urothelial carcinoma cells” (Clinical Epigenetics, 2018).

Columns and labels:
HDAC1 [1] = molecular target: T1, HDAC1 (Homo sapiens, UniProt Q13547); assay: In vitro fluorescence-based HDAC inhibition assay (Reaction Biology); conditions: read-out: IC50 HDAC1; experiment performed once
HDAC1 [2] = molecular target: T1, HDAC1; design: purchased Reaction Biology Corp. (Malvern, PA); conditions: previously reported; given for HDAC1/2 together; cited from earlier work
HDAC2 = HDAC2 (Homo sapiens, UniProt Q92769); assay: In vitro fluorescence-based HDAC inhibition assay (Reaction Biology); conditions: read-out: IC50 HDAC2; experiment performed once
UCCs = assay: Western blot of acetylated α-tubulin and histones H3/H4; type: cell-based, human; conditions: 48 h, 19i 1 or 2 μM
Procedure: (§1) Total protein extraction, purification of histones, and Western blot analysis were performed as previously described. Briefly, cells were incubated for 30 min on ice in RIPA-buffer (150 mM NaCl, 1% Triton X-100, 0.5% desoxycholate, 1% Nonidet P-40, 0.1% SDS, 1 mM EDTA, 50 mM TRIS (pH 7.6)) containing 10 μl/ml protease inhibitor cocktail (#P-8340, Sigma Aldrich, St. Louis, MO). Histones were extracted for detection of histone H3 and H4 acetylation by a modified published protocol employing sulfuric acid extraction and TCA-precipitation. Concentrations of total protein and histones were determined by BCA protein assay (Thermo Fisher Scientific, Carlsbad, CA). Subsequently, total cell proteins (15 μg) or extracted histones (2 μg) were separated by SDS-PAGE (total proteins 10–12% gels, histones 15% gels), transferred to PVDF membranes (Merck Millipore, Berlin, Germany), and were incubated with primary antibodies (at RT for 1 h or 4 °C overnight, see Additional file 3: Table S2) following blocking with 5% non-fat milk or BSA (bovine serum albumin) in TBST (150 mM NaCl, 10 mM TRIS, pH 7.4 and 0.1% Tween-20). For signal detection, membranes were incubated with a suitable horseradish peroxidase-conjugated secondary antibody (see Additional file 2: Table S1) at RT for 1 h and signals were visualized by SuperSignal™ West Femto (Thermo Fisher Scientific, Carlsbad, CA) and WesternBright Quantum kit (Biozym, Hessisch Oldendorf, Germany).

HDAC8 = HDAC8 (Homo sapiens, UniProt Q9BY41); assay: In vitro fluorescence-based HDAC inhibition assay (Reaction Biology); conditions: read-out: IC50 HDAC8; experiment performed once
HDAC9 = HDAC9 (Homo sapiens, UniProt Q9UKV0); assay: as above; conditions: read-out: IC50 HDAC9; experiment performed once
[3] = test system: three UCCs (VM-CUB1, UM-UC-3, 639-V); assay: qRT-PCR of TS and p21CIP1 mRNA; type: cell-based, human; conditions: 19i 2 μM, 24 or 48 h, all three UCCs
Procedure: Total cell RNA was isolated by the Qiagen RNeasy Mini Kit (Qiagen, Hilden, Germany) according to the manufacturer’s protocol, and cDNA was synthesized using QuantiTect Reverse Transcription Kit (Qiagen, Hilden, Germany) with an extended incubation time of 30 min at 42 °C as previously described. Target mRNA expression was measured by qRT-PCR with QuantiTect SYBR Green RT-PCR Kit (Qiagen, Hilden, Germany) on the LightCycler® 96 Real-Time PCR system with software version 1.1 (Roche Diagnostics, Rotkreuz, Switzerland). All used primers, comprising QuantiTect Primer assays (Qiagen, Hilden, Germany), self-designed target primers, and primers for the reference housekeeping gene TBP (TATA-box binding protein), are listed in Additional file 2: Table S1.

[4] = test system: UC cell lines (VM-CUB1, UM-UC-3, 639-V); assay: MTT viability assay, UC cell lines taken together; type: cell-based, human; conditions: across VM-CUB1, UM-UC-3, 639-V; MTT, 72 h
Procedure: Further experiments were performed in VM-CUB1 and UM-UC-3 cells overexpressing HDAC4 (see below). Standard UCCs were obtained from the DSMZ (Braunschweig, Germany) and Dr. H.B. Grossmann HB (Houston, USA). For comparison, we investigated the spontaneously immortalized normal human bladder cell line HBLAK (provided by CELLnTEC, Bern, Switzerland) and the immortalized human embryonic kidney cell line HEK-293 (provided by Dr. V. Kolb-Bachofen, Duesseldorf, Germany). Cells were cultured and treated in DMEM GlutaMAX-I (Gibco, Darmstadt, Germany; UCCs and HEK-293) supplemented with 10% fetal calf serum (Biochrom, Berlin, Germany), except for HBLAK cultured in CnT-Prime Epithelial Culture Medium (CELLnTEC, Bern, Switzerland; HBLAK), at 37 °C and 5% CO2. […]
For the determination of cellular mean cytotoxic concentration (CC50), UCCs, non-malignant control cells, and HDAC4-overexpressing clones were seeded in a 96-well format and treated once with a range of defined concentrations of the HDAC inhibitors. After 72 h, viability was quantified by NAD(P)H-dependent 3-(4,5-dimethylthiazol-2-yl)-2,5-diphenyltetrazolium bromide dye reduction assay (MTT, Sigma Aldrich, St. Louis, MO). […] For time-dependent proliferation experiments, viability of untreated or inhibitor-treated cells was measured after 24, 48, and 72 h.

HDAC6 = HDAC6 (Homo sapiens, UniProt Q9UBN7); design: purchased Reaction Biology Corp. (Malvern, PA); conditions: previously reported; cited from earlier work
HDAC5 = molecular target: T2, HDAC5 (Homo sapiens, UniProt Q9UQL6); conditions: older assays, given for HDAC4/5 together; cited from earlier work
T2 construct: purchased Reaction Biology Corp. (Malvern, PA)

[5] = test system: UCCs VM-CUB1, UM-UC-3, and 639-V; assay: Western blot of cleaved PARP; type: cell-based, human; conditions: 19i 2 μM, 48 h; especially in 639-V
Procedure: as §1, with “For signal detection, membranes were incubated with a suitable horseradish peroxidase-conjugated secondary antibody (see Additional file 2: Table S1) at RT for 1 h and signals were visualized by SuperSignal™ West Femto (Thermo Fisher Scientific, Carlsbad, CA) and WesternBright Quantum kit (Biozym, Hessisch Oldendorf, Germany).” left out

T1 sequence (Q13547 whole entry): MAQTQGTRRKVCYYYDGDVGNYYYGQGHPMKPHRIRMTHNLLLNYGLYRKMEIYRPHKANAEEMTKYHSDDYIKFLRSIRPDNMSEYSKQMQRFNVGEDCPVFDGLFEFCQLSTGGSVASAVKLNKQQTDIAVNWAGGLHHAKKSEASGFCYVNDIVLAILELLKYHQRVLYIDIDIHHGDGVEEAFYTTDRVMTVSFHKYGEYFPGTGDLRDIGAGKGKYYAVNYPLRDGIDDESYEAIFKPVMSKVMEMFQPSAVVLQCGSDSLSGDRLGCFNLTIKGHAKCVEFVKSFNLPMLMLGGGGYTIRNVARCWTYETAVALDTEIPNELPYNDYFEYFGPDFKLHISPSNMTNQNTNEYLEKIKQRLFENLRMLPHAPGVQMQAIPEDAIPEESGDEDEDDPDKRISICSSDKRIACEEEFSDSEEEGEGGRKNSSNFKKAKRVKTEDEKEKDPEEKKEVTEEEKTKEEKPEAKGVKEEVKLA
T2 sequence (Q9UQL6 whole entry): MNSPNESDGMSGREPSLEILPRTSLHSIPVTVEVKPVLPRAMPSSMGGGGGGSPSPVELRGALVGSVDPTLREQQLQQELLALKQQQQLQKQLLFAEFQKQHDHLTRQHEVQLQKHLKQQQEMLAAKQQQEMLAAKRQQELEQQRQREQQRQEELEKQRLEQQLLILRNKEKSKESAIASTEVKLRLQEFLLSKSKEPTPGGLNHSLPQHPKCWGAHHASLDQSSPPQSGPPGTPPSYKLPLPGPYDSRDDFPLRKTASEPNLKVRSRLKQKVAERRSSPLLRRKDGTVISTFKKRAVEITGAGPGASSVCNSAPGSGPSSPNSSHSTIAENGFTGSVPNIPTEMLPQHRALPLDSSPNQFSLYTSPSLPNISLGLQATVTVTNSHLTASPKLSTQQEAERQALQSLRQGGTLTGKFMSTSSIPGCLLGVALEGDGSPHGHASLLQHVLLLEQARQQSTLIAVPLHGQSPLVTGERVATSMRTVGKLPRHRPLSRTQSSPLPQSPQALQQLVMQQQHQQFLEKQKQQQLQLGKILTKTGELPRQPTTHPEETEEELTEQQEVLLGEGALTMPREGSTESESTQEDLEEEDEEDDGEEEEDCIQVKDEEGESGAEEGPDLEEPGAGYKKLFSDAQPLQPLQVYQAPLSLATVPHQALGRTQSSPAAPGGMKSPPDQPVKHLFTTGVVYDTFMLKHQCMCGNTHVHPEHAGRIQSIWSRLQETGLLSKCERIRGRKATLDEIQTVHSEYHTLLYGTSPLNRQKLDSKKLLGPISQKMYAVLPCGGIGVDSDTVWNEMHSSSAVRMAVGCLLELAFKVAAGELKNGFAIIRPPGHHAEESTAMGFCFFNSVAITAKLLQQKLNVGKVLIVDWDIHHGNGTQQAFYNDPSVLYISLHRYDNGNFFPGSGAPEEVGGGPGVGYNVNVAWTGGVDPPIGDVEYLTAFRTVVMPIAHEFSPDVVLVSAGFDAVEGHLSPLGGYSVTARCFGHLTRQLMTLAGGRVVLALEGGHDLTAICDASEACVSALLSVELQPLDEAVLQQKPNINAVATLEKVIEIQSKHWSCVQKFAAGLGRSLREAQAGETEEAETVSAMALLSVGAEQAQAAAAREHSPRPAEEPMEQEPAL
HDAC6, sequence (Q9UBN7 whole entry): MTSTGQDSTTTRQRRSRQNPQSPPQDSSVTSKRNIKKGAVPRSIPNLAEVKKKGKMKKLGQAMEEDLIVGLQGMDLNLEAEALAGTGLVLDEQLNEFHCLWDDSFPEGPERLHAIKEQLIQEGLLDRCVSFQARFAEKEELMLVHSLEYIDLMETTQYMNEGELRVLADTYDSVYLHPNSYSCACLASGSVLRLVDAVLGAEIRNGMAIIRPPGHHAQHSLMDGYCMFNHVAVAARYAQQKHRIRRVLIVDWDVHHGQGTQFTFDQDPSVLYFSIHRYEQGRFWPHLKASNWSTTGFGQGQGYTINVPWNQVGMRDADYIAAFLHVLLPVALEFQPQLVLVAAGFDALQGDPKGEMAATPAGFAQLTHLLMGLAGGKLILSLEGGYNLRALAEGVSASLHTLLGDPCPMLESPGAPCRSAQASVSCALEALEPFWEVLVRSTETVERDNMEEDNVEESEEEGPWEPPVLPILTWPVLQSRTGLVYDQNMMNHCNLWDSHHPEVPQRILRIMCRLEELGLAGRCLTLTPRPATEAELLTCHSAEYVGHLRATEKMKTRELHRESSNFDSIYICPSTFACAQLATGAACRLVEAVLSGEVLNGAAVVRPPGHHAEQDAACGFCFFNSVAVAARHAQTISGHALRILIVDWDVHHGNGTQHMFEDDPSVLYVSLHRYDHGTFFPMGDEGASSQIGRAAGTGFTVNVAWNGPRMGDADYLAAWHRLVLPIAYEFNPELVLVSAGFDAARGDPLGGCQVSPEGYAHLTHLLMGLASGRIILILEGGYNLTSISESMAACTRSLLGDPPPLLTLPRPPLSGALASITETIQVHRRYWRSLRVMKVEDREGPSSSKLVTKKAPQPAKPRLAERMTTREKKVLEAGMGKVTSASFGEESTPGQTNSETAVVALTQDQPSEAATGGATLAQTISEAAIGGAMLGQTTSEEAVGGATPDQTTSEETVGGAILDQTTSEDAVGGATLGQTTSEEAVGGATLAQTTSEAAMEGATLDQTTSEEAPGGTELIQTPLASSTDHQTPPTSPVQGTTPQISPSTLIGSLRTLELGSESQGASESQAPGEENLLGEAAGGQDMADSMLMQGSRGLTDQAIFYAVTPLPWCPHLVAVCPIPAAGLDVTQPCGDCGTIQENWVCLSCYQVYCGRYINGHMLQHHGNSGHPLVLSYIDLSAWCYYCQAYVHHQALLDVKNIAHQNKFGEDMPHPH
HDAC8, sequence (Q9BY41 whole entry): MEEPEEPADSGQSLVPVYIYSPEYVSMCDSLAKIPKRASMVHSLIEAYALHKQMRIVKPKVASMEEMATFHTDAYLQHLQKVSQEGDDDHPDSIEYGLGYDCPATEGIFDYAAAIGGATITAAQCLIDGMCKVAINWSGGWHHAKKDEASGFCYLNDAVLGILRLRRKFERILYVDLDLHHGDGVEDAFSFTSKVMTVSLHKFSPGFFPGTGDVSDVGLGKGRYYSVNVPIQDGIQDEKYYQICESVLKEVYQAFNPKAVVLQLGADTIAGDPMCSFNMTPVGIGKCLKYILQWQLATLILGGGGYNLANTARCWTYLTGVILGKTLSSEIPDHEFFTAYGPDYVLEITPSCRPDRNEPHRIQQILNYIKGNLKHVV
HDAC2, sequence (Q92769 whole entry): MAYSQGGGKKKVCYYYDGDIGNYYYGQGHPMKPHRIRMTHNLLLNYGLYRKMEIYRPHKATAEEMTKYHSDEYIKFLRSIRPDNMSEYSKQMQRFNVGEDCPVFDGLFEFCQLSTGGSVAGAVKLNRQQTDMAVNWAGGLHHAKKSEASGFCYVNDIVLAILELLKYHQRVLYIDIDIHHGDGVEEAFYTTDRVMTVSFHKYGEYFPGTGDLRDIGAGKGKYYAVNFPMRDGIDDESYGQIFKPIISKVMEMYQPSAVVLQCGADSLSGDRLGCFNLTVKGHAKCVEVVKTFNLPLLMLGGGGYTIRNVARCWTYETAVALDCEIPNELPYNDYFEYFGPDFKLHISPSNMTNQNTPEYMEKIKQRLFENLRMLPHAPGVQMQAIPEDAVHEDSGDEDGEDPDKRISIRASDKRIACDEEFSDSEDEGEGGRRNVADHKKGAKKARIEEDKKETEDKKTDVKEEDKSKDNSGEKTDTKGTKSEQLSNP
HDAC9, sequence (Q9UKV0 whole entry): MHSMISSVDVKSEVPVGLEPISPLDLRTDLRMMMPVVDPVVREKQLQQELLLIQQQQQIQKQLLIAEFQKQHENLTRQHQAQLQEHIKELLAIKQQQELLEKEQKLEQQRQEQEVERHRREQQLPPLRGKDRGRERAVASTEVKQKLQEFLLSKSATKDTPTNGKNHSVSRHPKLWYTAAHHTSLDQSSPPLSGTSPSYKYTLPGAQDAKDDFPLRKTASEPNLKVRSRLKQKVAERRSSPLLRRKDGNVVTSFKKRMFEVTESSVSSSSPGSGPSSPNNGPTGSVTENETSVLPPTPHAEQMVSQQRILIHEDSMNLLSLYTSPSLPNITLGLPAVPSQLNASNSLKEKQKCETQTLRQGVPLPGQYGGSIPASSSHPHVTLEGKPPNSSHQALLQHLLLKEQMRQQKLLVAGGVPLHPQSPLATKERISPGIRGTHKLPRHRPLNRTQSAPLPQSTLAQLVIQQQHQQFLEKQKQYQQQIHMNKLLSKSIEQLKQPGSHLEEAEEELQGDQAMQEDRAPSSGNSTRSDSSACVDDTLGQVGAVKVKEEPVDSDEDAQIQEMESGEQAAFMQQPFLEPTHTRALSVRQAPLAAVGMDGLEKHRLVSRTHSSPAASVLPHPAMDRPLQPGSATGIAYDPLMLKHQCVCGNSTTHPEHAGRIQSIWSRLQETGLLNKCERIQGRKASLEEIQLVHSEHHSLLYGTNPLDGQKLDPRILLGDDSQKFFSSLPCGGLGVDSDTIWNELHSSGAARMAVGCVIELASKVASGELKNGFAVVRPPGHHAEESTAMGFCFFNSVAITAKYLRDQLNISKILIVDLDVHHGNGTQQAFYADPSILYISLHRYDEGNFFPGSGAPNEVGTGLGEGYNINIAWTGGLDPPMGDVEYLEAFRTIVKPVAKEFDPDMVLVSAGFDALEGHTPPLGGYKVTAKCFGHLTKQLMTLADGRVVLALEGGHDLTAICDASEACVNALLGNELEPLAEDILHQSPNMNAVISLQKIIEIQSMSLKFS

Cc1cc(C)cc(C(=O)NOCCCCCC(=O)NO)c1 [19i]
IC50 (HDAC1 [1]): 0.315 µM | in vitro IC50 HDAC1 (HDAC1 [2]): sub-micromolar | IC50 (HDAC2): 0.402 µM | global acetylation of histones H3 and H4 (UCCs): enhanced | acetylation of α-tubulin (UCCs; SAHA 2.5 μM): strongly induced | IC50 (HDAC8): 2.84 µM | IC50 (HDAC9): 198 µM | p21CIP1 mRNA expression [3]: increased | thymidylate synthase (TS) mRNA expression [3]: decreased | CC50 [4]: ~1 µM | in vitro IC50 HDAC6 (HDAC6): sub-micromolar | in vitro IC50 HDAC5 (HDAC5): nanomolar range | PARP cleavage [5]: augmented
